Data from patent US20220362122A1, “Hair Treatment Compositions With Amine Derivatives” (ELC Management LLC, priority 2021, published 2022).
“Also recorded” adds a separate entry of the source. Read-outs that look alike come from different tables or passages of the source. Marks after values point to notes of the source that are not given here.

Experiments:
[1] = alkalizer composition; 22° C., T-F spindle, 6 rpm
[2] = alkalizer composition
[3] = for Lifting level normalized to NH3•H2O / Relative lifting level in percentage (LVirgin-LAlkalizer)/(LVirgin-LNaOH) / ΔL (change in color lifting) LVirgin-LAlkalizer: single alkalizer compositions, Table 5; for lifting of natural hair color, comparison in words: single alkalizer/oxidizer mixtures; for L Value: single alkalizer composition + volume 40 oxidizer developer on hair tresses, 37° C., 45 minutes, virgin 19
[4] = pH of alkalizer composition
outer root sheath cells = assay: MultiTox-Fluor Multiplex Cytotoxicity Assay, outer root sheath cells; format: cell-based; conditions: for IC50: greater IC50 = less stress on the cells, unit inferred; for toxicity to the cell, comparison in words: outer root sheath cells
Protocol: (§1) The effects of alkalizer compositions on outer root sheath cells and on keratinocytes was evaluated. The MultiTox-Fluor Multiplex Cytotoxicity Assay (Promega Corp., Madison, Wis.) simultaneously measures two protease activities: one is a marker of cell viability, and the other is a marker of cytotoxicity. In the assays, the responses of outer root sheath cells and keratinocytes to various concentrations of alkalizers were measured, and IC50, the concentration that provokes a mid-height response (midway between the baseline response and maximal response), was determined.

keratinocytes = assay: MultiTox-Fluor Multiplex Cytotoxicity Assay, keratinocytes; format: cell-based; conditions: for toxicity to the cell, comparison in words: keratinocytes
Protocol: as §1

[5] = Table 12 AEPD-Tris series, mole ratio AEPD/Tris, virgin hair 20.4
[6] = alkalizer composition: Table 2 base + alkalizer, same molar percentage
[7] = Table 13 Serinol-Tris series, mole ratio Serinol/Tris, virgin hair 20.4

Compound | Viscosity (cP × 10^5) [1] [cP × 10^5] | Alkalinity [2] [mL/g] | % Relative damage level compared to NaOH (TVirgin-TAlkalizer)/(TVirgin-TNaOH) (keratin in hair) [%] | Damage level normalized to NH3•H2O (keratin in hair) | ΔT (change in denaturation temperature) TVirgin-TAlkalizer (keratin in hair) | Lifting level normalized to NH3•H2O [3] | Relative lifting level in percentage (LVirgin-LAlkalizer)/(LVirgin-LNaOH) [3] [%] | ΔL (change in color lifting) LVirgin-LAlkalizer [3] | lifting of natural hair color, comparison in words [3] | pH [4] | toxicity to the cell, comparison in words (outer root sheath cells) | toxicity to the cell, comparison in words (keratinocytes) | hair damage / denaturation temperature, comparison in words (keratin in hair) | L Value [3] | pH [4, 6] | also measured
3-Amino-1-propanol [AP] | 3.26 | 3.10 | 83.97 | 4.30 | 12 | 1.20 | 102.27 | −18 | better at lifting natural hair color than the ammonium hydroxide/oxidizer mixture; also recorded: outperformed all of them | 11.49 | – | – | – | – | – | Denaturation Temperature (° C.) (keratin in hair): 138.42 °C
CCC(N)(CO)CO [AEPD, 2-Amino-2-ethyl-1,3-propanediol] | 4.47 | 2.40 | 29.18 | 1.49 | 4.17 | 0.73 | 62.50 | −11 | not quite as good as secondary amine alkalizer, DEA, but close | – | significantly less toxic than ammonium hydroxide | significantly less toxic than ammonium hydroxide | performed significantly better than MEA and AMP | 30 | 10.33 | IC50 (outer root sheath cells): 87 mM; denaturation temperature in binary combinations, in words (keratin in hair): lowered the denaturation temperature, but only slightly; L* value ([3]; Table 7 AEPD-NH3 series, mole ratio AEPD/NH3, virgin hair 20.2): 30; L* value [3, 5]: 30.4
CC(C)(N)CO [AMP, aminomethyl propanol, reference compound] | 1.81 | 2.32 | 60.11 | 3.08 | 8.59 | 0.90 | 76.70 | −13.5 | – | – | more toxic to the cell than ammonium hydroxide | more toxic to the cell than ammonium hydroxide | – | 32.5 | 10.91 | –
CC(N)(CO)CO [AMPD, 2-Amino-2-methyl-1,3-propanediol] | 3.84 | 2.49 | – | 1.63 | 4.54 | 0.87 | – | −13 | almost as good as MEA and ammonium hydroxide | 10.28 | significantly less toxic than ammonium hydroxide | significantly less toxic than ammonium hydroxide | – | – | – | –
OCCNCCO [DEA, Diethanolamine] | 5.09 | 2.57 | – | 0.64 | 1.79 | 0.77 | – | −11.5 | – | 10.35 | – | – | less damaging to hair than the ammonium hydroxide composition | – | – | –
CN(C)C(C)(C)CO [DMAMP, 2-Dimethyl-amino-2-methyl-1-propanol] | 0.211 | 2.38 | 18.05 | 0.92 | 2.58 | 0.47 | 39.77 | −7 | – | – | more toxic than ammonium hydroxide, but less toxic than conventional replacement AMP; also recorded: more toxic to the cell than ammonium hydroxide | more toxic than ammonium hydroxide, but less toxic than conventional replacement AMP; also recorded: less toxic to keratinocytes than MEA; also recorded: more toxic to the cell than ammonium hydroxide | less damaging to hair than the ammonium hydroxide composition | 26 | 11.15 | IC50 (outer root sheath cells): 18 mM; IC50 (keratinocytes; Keratinocyte, greater IC50 = less stress on the cells, unit inferred): 33 mM; denaturation temperature in binary combinations, in words (keratin in hair): raised the denaturation temperature; L* value ([3]; Table 8A DMAMP-NH3 series, mole ratio DMAMP/NH3, virgin hair 20.3): 26; L* value ([3]; Table 8B DMAMP-NH3 in low DMAMP percentages, mole ratio DMAMP/NH3, virgin hair 20.3): 24.9
CN(C)CC(O)CO (stereo not drawn) [DMAPD, 3-(dimethylamino)-1,2-propanediol] | 3.23 | 2.57 | 6.72 | 0.34 | 0.96 | 0.43 | 36.93 | −6.5 | – | – | significantly less toxic than ammonium hydroxide | significantly less toxic than ammonium hydroxide | less damaging to hair than the ammonium hydroxide composition | 25.5 | 10.37 | –
[Na+].[OH-] [NaOH, reference compound] | – | – | 100 | 5.12 | 14.29 | 1.17 | 100 | −17.6 | – | – | – | – | – | 36.6* | – | –
NC(CO)CO [Serinol, 2-Amino-1,3-propanediol] | 10.1 | 2.55 | 22.32 | 1.14 | 3.19 | 0.80 | 68.18 | −12 | performed significantly less well than ammonium hydroxide | – | – | – | – | 31 | 10.22 | denaturation temperature in binary combinations, in words (keratin in hair): lowered the denaturation temperature, but only slightly; L* value ([3]; Table 10 Serinol-NH3 series, mole ratio Serinol/NH3, virgin hair 19.9): 31.2; L* value [3, 7]: 31.2
NC(CO)(CO)CO [Tris, Tromethamine] | 4.17 | 2.43 | – | 0.51 | 1.42 | 0.53 | – | −8 | as good as tertiary alkalizer DMAP | – | – | – | also performed well | 27 | 9.6 | L* value ([3]; Table 9 Tris-NH3 series, mole ratio Tris/NH3, virgin hair 20.0): 28; L* value ([3]; Table 11 AMPD-Tris series, mole ratio AMPD/Tris, virgin hair 20.3): 28; L* value [3, 5]: 28.5; L* value [3, 7]: 28.5; L* value / color lifting in binary combinations, in words ([3]; binary combinations of alkalizers): tends to reduce the effectiveness of color lifting
Ammonium hydroxide [reference compound] | – | – | – | 1 | 2.79 | – | – | – | – | 10.72 | – | – | – | – | – | –
